Data as given in patent US11634712B2, “Nucleic acid simultaneously inhibiting expression of mTOR gene and STAT3 gene” (CURIGIN CO., LTD., priority 2017, dated 2023).
d = 2'-deoxy (DNA); r = 2'-OH (RNA)

What was measured:
mTOR gene = experiment: mTOR expression after mTOR siRNA and/or STAT3 siRNA transfection of A549, real-time PCR; type: cell-based, human; conditions: A549, 48 hours after transfection, relative to control siRNA nc2 = 1.0000
STAT3 gene = experiment: STAT3 expression after mTOR siRNA and/or STAT3 siRNA transfection of A549, real-time PCR; type: cell-based, human; conditions: A549, 48 hours after transfection, relative to control siRNA nc2 = 1.0000

Substance	mTOR expression level (mTOR gene)	STAT3 expression level (STAT3 gene)
siSTAT3: siRNA targeting the only STAT3; SEQ ID NOS: 24 and 25 (chain 1 UGUUCUCUGAGACCCAUGATT; chain 2 UCAUGGGUCUCAGAGAACATT; sugars from the 5' end r19 d2, backbone not given here)	1.0507	0.6074
simTOR: siRNA targeting the only mTOR; SEQ ID NOs: 22 and 23 (chain 1 GUGGAAACAGGACCCAUGATT; chain 2 UCAUGGGUCCUGUUUCCACTT; sugars from the 5' end r19 d2, backbone not given here)	0.1980	1.0705
